The test system of one series is GABA receptor complex. Conditions: Tarnawa et al. 1989; cited from earlier work.
The subject of series [1] is N-acetyltransferse NAT2 isozymes. Nature of the series: Previous clinical trial: N-acetylation of talampanel by NAT2. It is filed as in vivo, human. The source says: N-acetylation was identified as one metabolic pathway of talampanel, catalyzed by N-acetyltransferse NAT2 isozymes. A genetic polymorphism in the NAT2 gene affects the acetylation rate. […] The three common slow acetylator alleles identified are NAT2*5A, NAT2*6A and NAT2*7A. The NAT2*5 alleles have the greatest reductions in metabolic activation while NAT2*6 alleles have more moderate reductions and NAT2*7 alleles have the smallest, but yet significant, reductions. The frequency of NAT2 slow acetylators (about 2-10% in Asian, 60-70% in Caucasians, 30-40% in Africans) and NAT2 fast acetylators (about 40-60% in Asian, 3-15% in Caucasian, 10-25% in Africans) varies markedly with ethnicity.

The subject of another series is mouse model of ALS. Conditions: Van Damme et al. 2003; cited from earlier work.
The test system of series [2] is motor neurons. Conditions: in vitro; cited from earlier work.
Series [3] has as its system AMPA subtype of glutamate excitatory amino acid receptors. Conditions: AMPA antagonist; cited from earlier work.
A further series relates to ALS. The series can be described thus: Pilot study of talampanel in ALS, 50 mg t.i.d. vs placebo. Conditions: placebo −10.2, p=0.08, positive trend. It is filed as in vivo, human. How it is done: A pilot study of talampanel in ALS compared 50 mg t.i.d of talampanel to placebo. The study found a positive trend in the ALSFRS scores of talampanel treated relative to placebo (average score −7.1 vs. −10.2, p=0.08).

Series [4] deals with subjects with ALS. Nature of the series: Example 2: another clinical trial according to the procedure of Example 1. The class given is in vivo, human. How it is done:
(§1) A subject is assessed for study eligibility at a screening visit (one to 4 weeks prior to baseline). Subjects who are found eligible to participate in the study are randomized in a 2:1:2 ratio into one of the following three treatment groups based on a randomization scheme with blocks stratified by center: • 1. 50 mg (25 mg capsule×2) talampanel t.i.d. (150 mg daily) • 2. 25 mg (12.5 mg capsule×2) talampanel t.i.d. (75 mg daily) • 3. Placebo
(§2) After undergoing randomization subjects receive their first dose of study treatment on site. There are two possible escalation periods to reach maximal dose of 6 capsules per day, as follows: • Screening Period Up to 4 weeks but not less than 1 week. The period between screening visit and baseline visit. During this time period all relevant data for the assessment of subjects eligibility should be collected and reviewed i.e. lab results, ECG, medical history etc. • First Escalation Period: A period of 4 to 6 weeks, following screening period. This period starts at baseline visit, following randomization; • Second Escalation Period: A period of 2 weeks, this period starts at week 10 visit and ends at week 12 visit. • Maintenance Period: A time period of 46 to 48 weeks, following the first escalation period, starting after reaching maximal achieved dose in the first escalation period. During this period oral administration of talampanel 25 mg t.i.d., 50 mg t.i.d. (or maximal achieved dose) or matching oral placebo is maintained.
(§3) The first escalation period is a period of 4-6 weeks, following randomization. The dose escalation plan for the 25 mg and 50 mg t.i.d. dose levels, respectively, is as follows: • First week: from baseline visit to week 1 (telephone visit): Three capsules (37.5 mg or 75 mg daily) one each a.m., mid-day and p.m. dosing. • Second week: from week 1 (telephone visit) to week 2 (telephone visit): Four capsules (50 mg or 100 mg daily) one each a.m. & mid-day, two at p.m. dosing. • Third week: from week 2 (telephone visit) to week 3 (telephone visit): Five capsules (62.5 mg or 125 mg daily) two at a.m. one in mid-day and two at p.m. dosing. • Fourth week: from week 3 (telephone visit) to week 4 on site visit: Six capsules (75 mg or 150 mg daily) two at each a.m., mid-day and p.m. dosing.
(§4) At in-clinic visits the following are assessed: • Revised ALS Functional Rating Scale (ALSFRS-R) (screening, baseline, weeks 4-6, 12, 26, 40, 52/ET and unscheduled) • Slow VC (screening, baseline, weeks 4-6, 12, 26, 40, 52/ET and unscheduled) • Manual Muscle Testing (MMT) (baseline, weeks 12, 26, 40, 52/ET and unscheduled) • ALS-Specific Quality of life (ALSSQoL) scale (baseline, weeks 26, 52/ET) [US and Canada Only] • EuroQol-5 Dimensions (EQ-5D) health outcomes scale (baseline, weeks 4-6, 12, 26, 40 and 52/ET) • Health Care Resource Utilization Questionnaire for ALS (baseline, weeks 4-6, 12, 26, 40, 52/ET) • Caregiver burden questionnaire, Zarit Burden Interview (ZBI) [caregiver] (Baseline, weeks 12, 26, 40, 52/ET) • Laboratory (screening, baseline, weeks 4-6, 12, 26, 40, 52/ET and unscheduled) • ECG (screening, baseline (3 times), weeks 4-6, 12, 26, 40, 52/ET and unscheduled) • Physical examination (screening, baseline, weeks 4-6, 12, 26, 40 and 52/ET and unscheduled) • Vital signs and weights (screening, baseline, weeks 4-6, 12, 26, 40 and 52/ET and unscheduled) • Check of concomitant medications, AEs and compliance • Pharmacokinetics (PK): Safety Pharmacokinetics (PK) blood samples are taken after at least 3 days on the maximal achieved dose at end of first escalation period at week 4-6 (pre-dose, anytime in the range of 0.5-2 hours post-dose and anytime in the range of 2-4 hours post dose with at least 1 hour difference between the 2 post dose samples) and at week 12 (pre-dose, anytime in the range of 0.5-2 hours post-dose and anytime in the range of 2-4 hours post dose with at least 1 hour difference between the 2 post dose samples). […]

Series [5] relates to subjects with ALS. Nature of the series: Example 3: another clinical trial according to the procedure of Example 1. It is filed as in vivo, human. The procedure:
as §1, §2, §3, §4

The conditions of series [6]: human, in vivo.
Description: (§5) In this study, the daily dose is increased by 12.5 mg or 25 mg daily each week to reach 75 mg or 150 mg daily (25 mg t.i.d. or 50 mg t.i.d.) respectively, at the 4th to 6th week or at the 11th to 12th week if needed.
The test system of series [7] is subjects with ALS. Nature of the series: Example 4: another clinical trial according to the procedure of Example 1. The class given is in vivo, human. The procedure: as §1, §2, §3, §4
Series [8] is described as follows: Prior clinical trials with talampanel: safety and tolerability. Conditions: previous clinical trials.
Description: as §5
The next series has as its system ALS patients. Conditions: cited from earlier work.
The subject of series [9] is motor neurons. Conditions: organotypic spinal cord slice model; cited from earlier work.
[10] abbreviates: 50 mg t.i.d., statistically significant.
The mark [11] stands for this setting: talampanel group, dose not stated, vs placebo.

Turning to `CC1=NN=C(c2ccc(N)cc2)c2cc3c(cc2C1)OCO3` [GYKI-52466], the “1,4-benzodiazepine (diazepam-like) activity at the GABA receptor complex” value with GABA receptor complex was “no classical 1,4-benzodiazepine (that is, “diazepam-like”) activity”.

Take `CC(=O)Nc1ccc(C2=NN(C(C)=O)C(C)Cc3cc4c(cc32)OCO4)cc1` (stereo not drawn) [NAC talampanel]: the “measurable levels of NAC talampanel by acetylator status” value in [1] (human, in vivo) is reported as “seen primarily in fast acetylator subjects, but not in slow acetylators”.

As for `NS(=O)(=O)c1cccc2c1c([N+](=O)[O-])cc1nc(O)c(O)nc12` [NBQX], the “prolonged survival in ALS mice” value with mouse model of ALS is 14 days. In addition, the “kainate induced calcium entry into motor neurons” value in the series on motor neurons [2] is recorded as “blocked”.

With `CC(=O)N1N=C(c2ccc(N)cc2)c2cc3c(cc2C[C@H]1C)OCO3` [talampanel], in series [3], the “potency relative to GYKI-52466” value was “more potent”. Besides, the “ALSFRS scores, average score” value in the series with ALS is given as −7.1. For the same compound, the “decrease in the slopes of ALSFRS-R as compared to placebo” value in the series with subjects with ALS [4] (25 mg t.i.d.) worked out at 20%; in the series with subjects with ALS [4] (setting [10]) it was 20%; in the series with subjects with ALS [5] (25 mg t.i.d.), 25%; in the series on subjects with ALS [5] (setting [10]) it was 25%; in the series with subjects with ALS [7] (25 mg t.i.d.), 30%; in the series on subjects with ALS [7] (setting [10]) it was 30%. The “risk of either death, tracheostomy, or permanent assisted ventilation” value in the series on subjects with ALS [4] (25 mg t.i.d.) is “reduction”; in the series with subjects with ALS [4] (50 mg t.i.d.), “decrease”; with subjects with ALS [5] (25 mg t.i.d.) it was “reduction”; with subjects with ALS [5] (50 mg t.i.d.), “decrease”; in the series on subjects with ALS [7] (25 mg t.i.d.), “reduction”; in the series with subjects with ALS [7] (50 mg t.i.d.), “decrease”. For the same compound, the “decrease in the change in ALSFRS-R from baseline to LOV in comparison to placebo” value in the series with subjects with ALS [4] (50 mg t.i.d.) stood at 20%; with subjects with ALS [5] (50 mg t.i.d.), 25%; in the series with subjects with ALS [7] (50 mg t.i.d.), 30%. Besides, the “adjusted mean change from baseline in MMT across visits” value with subjects with ALS [4] (50 mg t.i.d. vs placebo), in the series on subjects with ALS [5] (50 mg t.i.d vs placebo) and with subjects with ALS [7] (50 mg t.i.d. vs placebo) was “decrease” each time. Besides, the “adjusted mean change from baseline in Slow VC across visits” value with subjects with ALS [4] (50 mg t.i.d. vs placebo), in the series on subjects with ALS [5] (50 mg t.i.d. vs placebo) and with subjects with ALS [7] (50 mg t.i.d. vs placebo) was “decrease” throughout. Also, the “slopes of MMT” value with subjects with ALS [4] (50 mg t.i.d. vs placebo), in the series on subjects with ALS [5] (50 mg t.i.d. vs placebo) and in the series on subjects with ALS [7] (50 mg t.i.d. vs placebo) was “decrease” each time. Moreover, the “slopes of Slow VC” value in the series with subjects with ALS [4] (50 mg t.i.d. vs placebo), in the series on subjects with ALS [5] (50 mg t.i.d. vs placebo) and in the series with subjects with ALS [7] (50 mg t.i.d. vs placebo) was “decrease” each time. In addition, the “change in MMT from baseline to LOV” value in the series on subjects with ALS [4] (setting [11]), in the series with subjects with ALS [5] (setting [11]) and in the series with subjects with ALS [7] (setting [11]) was “decrease” throughout. In addition, the “safety and tolerability of the dose” value in series [6] was “safe and tolerated”. The “adverse events when the dose is gradually increased over time” value in series [8] is “reduced”. Also, the “N-acetylation dependence on NAT2 activity” value in [1] (metabolic pathway) is listed as “highly dependent on NAT2 activity”.

With `CC1(C)O[C@@H]2[C@@H](CO[C@@]3(COS(N)(=O)=O)OC(C)(C)O[C@@H]23)O1` [topiramate], in the series on ALS patients (Cudkowicz et al. 2003), the “benefit in clinical trial in ALS patients” value was “no benefit”. Besides, the “adverse events in patients” value in the series with ALS patients (including dramatic weight loss) was “significant adverse events”. Also, the “protection of motor neurons” value in the series with motor neurons [9] was “protected motor neurons”.
